In patent US6946480B2, “Glutaminyl based DPIV inhibitors” (priority 2002, dated 2005):

What was measured:
[1] = Plasma stability (half-life of inhibitory potency in human plasma); format: in vitro ADME
Description: In order to investigate the stability of glutaminyl pyrrolidine or glutaminyl thiazolidine in human plasma, the activity of DPIV in plasma was determined at a defined time. The average DPIV activity in human plasma was determined as 43.69 U/ml. In the working solution, the plasma was diluted in 0.9% NaCl to fix the DPIV activity level at 25 U/ml.
Plasma and glutaminyl pyrrolidine or glutaminyl thiazolidine in different concentrations (5*10^−5, 2.5*10^−5, 1.25*10^−5M in plasma) were incubated at 37° C. At defined time points samples were taken using a pipette roboter (Gilson 215, Liquid handler, Gilson) and transferred in a microtiter plate containing 5*10^−5M glycylprolylaminomethylcoumarine in 0.9% NaCl+015% Brij per well. After 6 min the reaction was stopped by addition of isoleucylthiazolidine (5*10^−5M in 0.9% NaCl solution).
Fluorescence measurement was performed against 0.9% NaCl in plasma (reference standard) using a plate reader (HTS7000plus, Applied Biosystems, Weiterstadt, Germany). The half-life of the inhibitory potency of glutaminyl pyrrolidine or glutaminyl thiazolidine was calculated by plotting the enzyme activity versus reaction time.

[2] = target: T1, recombinant human prolyl oligopeptidase (POP) (Homo sapiens, UniProt P48147); assay: Cross reacting enzymes - prolyl oligopeptidase; format: biochemical; details: concentration range 1*10^−4 M-5*10^−8 M
T1 construct: made in house; host or cells: E. coli
T1 sequence (P48147 1-710): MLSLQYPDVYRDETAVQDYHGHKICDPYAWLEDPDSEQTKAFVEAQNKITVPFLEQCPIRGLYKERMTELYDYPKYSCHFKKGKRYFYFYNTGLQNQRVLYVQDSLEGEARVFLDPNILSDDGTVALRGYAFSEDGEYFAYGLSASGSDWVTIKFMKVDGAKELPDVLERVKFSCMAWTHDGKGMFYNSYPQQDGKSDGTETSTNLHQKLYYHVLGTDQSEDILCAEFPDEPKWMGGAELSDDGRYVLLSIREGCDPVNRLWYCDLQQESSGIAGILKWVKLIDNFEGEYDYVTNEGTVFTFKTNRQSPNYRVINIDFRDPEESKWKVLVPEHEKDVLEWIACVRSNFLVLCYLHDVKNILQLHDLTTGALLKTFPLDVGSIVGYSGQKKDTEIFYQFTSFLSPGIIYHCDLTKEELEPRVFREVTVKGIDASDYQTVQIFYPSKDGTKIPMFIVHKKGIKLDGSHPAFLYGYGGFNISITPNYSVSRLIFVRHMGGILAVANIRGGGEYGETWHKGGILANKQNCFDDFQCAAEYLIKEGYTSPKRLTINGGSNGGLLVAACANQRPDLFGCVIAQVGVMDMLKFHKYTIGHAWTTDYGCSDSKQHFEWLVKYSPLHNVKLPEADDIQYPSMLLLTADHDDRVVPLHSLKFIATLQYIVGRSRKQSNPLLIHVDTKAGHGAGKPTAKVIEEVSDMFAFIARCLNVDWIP
Description: Glutaminyl pyrrolidine or glutaminyl thiazolidine were tested for their cross reacting potency against dipeptidyl peptidase I, prolyl oligopeptidase and prolidase.
Substrates are peptides with a molecular weight up to 3000 Da.
The enzyme used was a recombinant human prolyl oligopeptidase. Recombinant expression was performed in E. coli under standard conditions as described elsewhere in the state of the art.
100 μl glutaminyl pyrrolidine or glutaminyl thiazolidine in an concentration range of 1*10^−4 M-5*10^−8 M were admixed with 100 μl μl buffer solution (40 mM HEPES, pH7.6, 0.015% Brij, 1 mM DTT) and 20 μl POP solution. The assay mixture was pre-incubated at 30° C. for 15 min After pre-incubation, 50 μl glycylprolylprolyl-4-nitroaniline solution (0.29 mM) were added and measurement of yellow color development due to 4-nitroaniline release was performed at 30° C. and λ=405 nm for 10 min using a plate reader (sunrise, Tecan, Crailsheim, Germany).
The IC50-values were calculated using Graphit 4.0.15 (Erithacus Software, Ltd., UK).

half-life of the inhibitory potency in human plasma ([1]; 37° C., 5*10^−5, 2.5*10^−5, 1.25*10^−5M): no half-time could be determined
stability in human plasma ([1]; over 22 hours): stable in human plasma over 22 hours
inhibition of POP activity [2]: no inhibition
Structure (SMILES): NC(=O)CC[C@H](N)C(=O)N1CCCC1 [glutaminyl pyrrolidine]
